Assay results reported in PubChem BioAssay (NCI).
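Following 48 hours of exposure in 96-well plates, responses at five concentrations were used to interpolate endpoints linearly. GI50 = concentration required for 50% inhibition of growth. TGI is the concentration that stops growth completely.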

Tests used:
Assay in all cases: inhibition of tumour cell growth, NCI panel, 48 h
[1] = system: SK-MEL-2 melanoma
[2] = system: OVCAR-5 ovarian
[3] = system: UACC-257 melanoma
[4] = system: MOLT-4 leukemia
[5] = system: HL-60(TB) leukemia
[6] = system: HCT-116 colon
[7] = system: U251 CNS
[8] = system: OVCAR-4 ovarian
[9] = system: TK-10 renal
[10] = system: HOP-62 NSCLC
[11] = system: MDA-MB-468 breast
[12] = system: SK-MEL-5 melanoma
[13] = system: HT29 colon
[14] = system: EKVX NSCLC
[15] = system: RXF 393 renal
[16] = system: SN12C renal
[17] = system: HCT-15 colon
[18] = system: ACHN renal
[19] = system: MCF7 breast
[20] = system: COLO 205 colon
[21] = system: NCI-H226 lung
[22] = system: MDA-MB-231 breast
[23] = system: UACC-62 melanoma
[24] = system: SR leukemia
[25] = system: RPMI-8226 leukemia
[26] = system: NCI-H460 lung
[27] = system: A498 renal
[28] = system: SNB-75 CNS
[29] = system: MALME-3M melanoma
[30] = system: NCI-H23 lung
[31] = system: SNB-19 CNS
[32] = system: SK-MEL-28 melanoma
[33] = system: SW-620 colon
[34] = system: BT-549 breast
[35] = system: T-47D breast
[36] = system: 786-0 renal
[37] = system: SK-OV-3 ovarian
[38] = system: KM12 colon
[39] = system: HS 578T breast
[40] = system: HOP-92 NSCLC
[41] = system: PC-3 prostate
[42] = system: SF-268 CNS
[43] = system: A549 NSCLC
[44] = system: K-562 leukemia
[45] = system: SF-295 CNS
[46] = system: NCI/ADR-RES ovarian
[47] = system: CAKI-1 renal
[48] = system: IGROV1 ovarian
[49] = system: DU-145 prostate
[50] = system: OVCAR-3 ovarian
[51] = system: CCRF-CEM leukemia
[52] = system: M14 melanoma
[53] = system: SF-539 CNS
[54] = system: OVCAR-8 ovarian
[55] = system: LOX IMVI melanoma
[56] = system: MDA-MB-435
[57] = system: UO-31 renal
[58] = system: HCC-2998 colon

FC(F)(F)c1cc2c(Cl)ncnc2n1CCN1CCCCC1
GI50 [1]: 16.5 µM | TGI [1]: 32.9 µM | GI50 [2]: > 100 µM | TGI [2]: > 100 µM | GI50 [3]: 11.8 µM | TGI [3]: 30.4 µM | GI50 [4]: 10.5 µM | TGI [4]: 55.2 µM | GI50 [5]: 2.07 µM | TGI [5]: 7.47 µM | GI50 [6]: 4.86 µM | TGI [6]: 20.3 µM | GI50 [7]: 14.1 µM | TGI [7]: 34.9 µM | GI50 [8]: 28.5 µM | TGI [8]: > 100 µM | GI50 [9]: > 100 µM | TGI [9]: > 100 µM | GI50 [10]: 38.1 µM | TGI [10]: > 100 µM | GI50 [11]: 3.02 µM | TGI [11]: 9.43 µM | GI50 [12]: 14.9 µM | TGI [12]: 31.1 µM | GI50 [13]: 21.1 µM | TGI [13]: 81.3 µM | GI50 [14]: 16.3 µM | TGI [14]: 85.5 µM | GI50 [15]: 15.6 µM | TGI [15]: 40.9 µM | GI50 [16]: 19.4 µM | TGI [16]: > 100 µM | GI50 [17]: 3.16 µM | TGI [17]: 12.8 µM | GI50 [18]: 6.46 µM | TGI [18]: > 100 µM | GI50 [19]: 19.6 µM | TGI [19]: 76.5 µM | GI50 [20]: 52.7 µM | TGI [20]: > 100 µM | GI50 [21]: 60.6 µM | TGI [21]: > 100 µM | GI50 [22]: 5.47 µM | TGI [22]: 19.7 µM | GI50 [23]: 12.2 µM | TGI [23]: 30.5 µM | GI50 [24]: 3.28 µM | TGI [24]: 26.1 µM | GI50 [25]: 31.5 µM | TGI [25]: > 100 µM | GI50 [26]: 18.3 µM | TGI [26]: 50.6 µM | GI50 [27]: > 100 µM | TGI [27]: > 100 µM | GI50 [28]: 10.5 µM | TGI [28]: 22.5 µM | GI50 [29]: 19 µM | TGI [29]: 55.4 µM | GI50 [30]: 13.9 µM | TGI [30]: 39.3 µM | GI50 [31]: 15.2 µM | TGI [31]: 31.3 µM | GI50 [32]: 16 µM | TGI [32]: 37.7 µM | GI50 [33]: 11.2 µM | TGI [33]: 28.7 µM | GI50 [34]: 15 µM | TGI [34]: 29.8 µM | GI50 [35]: 21.9 µM | TGI [35]: > 100 µM | GI50 [36]: 39.8 µM | TGI [36]: > 100 µM | GI50 [37]: 52.3 µM | TGI [37]: > 100 µM | GI50 [38]: 29.8 µM | TGI [38]: > 100 µM | GI50 [39]: 16.4 µM | TGI [39]: 60 µM | GI50 [40]: 19.7 µM | TGI [40]: 53.8 µM | GI50 [41]: 15.2 µM | TGI [41]: 47.9 µM | GI50 [42]: 16 µM | TGI [42]: 38.6 µM | GI50 [43]: 80.1 µM | TGI [43]: > 100 µM | GI50 [44]: 2.91 µM | TGI [44]: > 100 µM | GI50 [45]: 22.6 µM | TGI [45]: 86.3 µM | GI50 [46]: 24 µM | TGI [46]: 64.8 µM | GI50 [47]: 25.3 µM | TGI [47]: > 100 µM | GI50 [48]: 2.98 µM | TGI [48]: 10.3 µM | GI50 [49]: 30.5 µM | TGI [49]: > 100 µM | GI50 [50]: 17.6 µM | TGI [50]: 35.5 µM | GI50 [51]: 11 µM | TGI [51]: > 100 µM | GI50 [52]: 12.8 µM | TGI [52]: 33.4 µM | GI50 [53]: 17.1 µM | TGI [53]: 36.2 µM | GI50 [54]: 12.5 µM | TGI [54]: 32.8 µM | GI50 [55]: 1.69 µM | TGI [55]: 3.11 µM | GI50 [56]: 13.1 µM | TGI [56]: 29.9 µM | GI50 [57]: 1.74 µM | TGI [57]: 3.58 µM | GI50 [58]: 4.11 µM | TGI [58]: 14.3 µM
